Reference: PMC7738869, “A novel STAT3 inhibitor W2014-S regresses human non-small cell lung cancer xenografts and sensitizes EGFR-TKI acquired resistance” (Theranostics, 2021)

Columns and labels:
[1] = test system: PDX (TM00192/LG0567F, lung adenocarcinoma); experiment: Lung cancer PDX tumor xenografts in nude mice; assay type: in vivo
Experimental: To establish cell xenograft model, nude mice were injected subcutaneously with A549 cells (2×10^6) or PC-9/GR cells (4×10^6). For PDX model, the PDX sample was from The Jackson Laboratory. The model ID is TM00192/LG0567F. For this patient, the primary site is lung, the initial and diagnosis and final diagnosis is lung adenocarcinoma. The stage/grade is AJCC IB/grade 3. […] The sample type is surgical resection. […] The tumor sample were cut into approximately 1 mm^3, and the tissue was pushed under skin of mice by TROCHAR. When tumor volumes reached approximately 100 mm^3, mice were randomly distributed into groups of 7 mice. […] Tumor size was measured every two days by vernier caliper. The average tumor volume in each group was calculated based on the equation for a prolate spheroid (tumor volume = (short-diameter)^2 × large-diameter × π / 6 ) and expressed in mm^3.

[2] = test system: STAT3; experiment: STAT3-dependent dual-luciferase reporter assay in A549 cells; assay type: cell-based, human; details: A549, 0, 0.3, 1 μM, 24 h
Experimental: The STAT3-dependent luciferase reporter, pGL3-STAT3, contained seven copies of the STAT3-specific binding sequence ([…]) in the C-reactive protein gene promoter, and drove firefly luciferase expression. The new construct was confirmed by sequencing. For luciferase studies, 293T cells or A549 cells in 96-well plates were transiently co-transfected with the appropriate plasmids (10 ng TKRL as internal control vector for normalizing and 50 ng of pGL3-STAT3) using Lipofectamine 2000 (11668500, Invitrogen, Carlsbad, CA, USA) which was following the manufacturer's protocol. After 24 h, HEK-293T cells were treated with 0-1 μM W2014-S for 24 h, and stimulated with IL-6 (100 ng/mL, PeproTech) for 1 h or EGF (50 ng/mL, PeproTech) for 30 min. Subsequently, cytosolic extracts were prepared for dual-luciferase reporter assay.

[3] = test system: STAT1 and STAT5; experiment: Western blot of STAT1 and STAT5 activation in A549 and PC-9 cells; assay type: cell-based, human
Experimental: Cells or tumor tissue were lysed with RIPA buffer (Beyotime, Shanghai, China) supplemented with protease inhibitors (Beyotime, Shanghai, China) and phosphatase inhibitors (Bimake, USA). Lysates were denatured by heating for 5 min at 99 °C and loaded on 4-10% SDS-polyacrylamide gel electrophoresis. Then the proteins were transferred to polyvinylidene fluoride (PVDF) membranes (Millipore, USA). The membranes were blocked and probed with primary antibodies and secondary HPR-conjugated antibodies. At last the membranes were detected by chemiluminescence (Tanon, Shanghai, China). For co-immunoprecipitation experiments, 293T cells were plated and grew to about 80% confluency, then co-transfected with plasmids of HA-STAT3 and Flag-STAT3 using Lipofectamine 2000. After 24 h, cells were treated with different concentrations of W2014-S for following 24 h, and stimulated with IL-6 (100 ng/mL) for 1 h. Cells were lysed with IP RIPA buffer (Beyotime, Shanghai, China) supplemented with protease inhibitors (Beyotime, Shanghai, China) and phosphatase inhibitors (Bimake, America), and lysates were cultured with Anti-flag Affinity Gel (B23102, Bimake, USA) overnight at 4 ℃. The gel was washed by PBST for three times and added 1×loading buffer and denatured by heating for 5 min at 99 ℃. Then the proteins were resolved on SDS-PAGE, transferred to PVDF membranes and analysed with immunoblotting.

[4] = test system: A549 cells; experiment: Cell viability assay (CCK-8), A549; assay type: cell-based; details: Homo sapiens, A549, 72 h, read-out: IC50 cell proliferation, A549, 72 h
Experimental: (§1) Cell proliferation was measured using the Cell Counting Kit-8 (CCK-8, B34304, Bimake, USA). A549 (2 × 10^3/100 μL/well), PC-9 (3 × 10^3/100 μL/well) or PC-9/GR cells (3 × 10^3/100 μL/well) were plated into each well of 96-well plates (Costar, USA). […] Then, 10 μL of CCK-8 was added to each well, and cells were incubated for 1-4 h until the color of untreated controls turned to orange. The absorbance (A) was measured by a microplate reader (FLUOstar Omega-ACU, USA) at test and reference wavelengths of 450 nm. The percentage of growth was calculated as Cell viability (%) = [A (Compound +) - A (Blank) ] / [A (Compound -) - A (Blank) ] × 100%. Cell viability meant proliferation of cells. Each experiment was done at least in triplicate, and thrice independently.

[5] = test system: PC-9/GR cells; experiment: Cell viability assay (CCK-8), PC-9/GR; assay type: cell-based, human; details: 72 h
Experimental: as §1

## C[C@H](Oc1ccc(-c2nc3nc(C4=CCN(C(=O)OC(C)(C)C)CC4)ccc3[nH]2)cc1)c1ccccc1 [W2014-S]
[1]; PDX
  level of pY705-STAT3 in tumor (western blot): significantly suppressed the level of pY705-STAT3
[1]; PDX mice, 5 or 15 mg/kg daily, 21 d
  body weights and signs of toxicity during treatment: no significant changes in body weights, or obvious signs of toxicity
[1]; PDX, i.p. 5 or 15 mg/kg daily, 21 d
  growth of xenografts: significantly inhibited growth
[1]; PDX, vs vehicle
  expression of Ki-67 in tumor (IHC): significantly reduced
[2]
  STAT3 transcriptional activity (luciferase reporter): inhibited
[3]
  STAT1 and STAT5 activation: no obvious effect
[4]
  IC50: 890 nM
[5]; PC-9/GR, with erlotinib
  sensitization of acquired resistance (erlotinib): sensitized acquired resistance
[5]; W2014-S 1 μM, gefitinib 2 μM
  resensitization of PC-9/GR to gefitinib: sufficient to resensitize PC-9/GR to gefitinib
